Measurements published in patent publication US11013748B2, “Budesonide prodrug” (University of Nizwa, priority 2019, dated 2021).
Converted amounts (≈) assume the structure as drawn.

What was measured:
[1] = tested on: colitis in rats; settings: literature; cited from earlier work
[2] = Solubility studies of Bu and BuP in buffer media; assay type: physicochemical; settings: thermodynamic from solid
Protocol: Solubility studies of the pure Bu and prepared BuP were determined (n=6) by making saturated solutions of HCl buffer, phthalate buffer, phosphate buffer of pH 1.2, 4.0, 6.8 (with and without 10% w/v rat fecal content), and 7.4 respectively. The solutions, kept separately in a conical flask, were subjected to ultrasonic waves in an ultrasonic bath (Sonorex, Bandelin Electronic, Germany) for 30 minutes. Fiber optic probes were inserted at 0 and 30 minutes, and readings taken at 232 nm for Bu and 340 nm for BuP using the fiber optics system

[3] = Partition coefficient, Hansch method (n-octanol/buffer); assay type: physicochemical
Protocol: The Hansch method was used to determine the partition coefficient between the n-octanol and phosphate buffer (both 10 mL) system. Different pH systems of 1.2, 4.0, 6.8, and 7.4, and n-octanol and double distilled water (both 10 mL, pH 5.8) were prepared. The buffers, n-octanol, and double distilled water were added to a separating funnel. The phases were shaken for 60 minutes. to attain saturation. Ten milligrams of Bu and BuP were added to respective separators and were given 30 minutes of shaking for the drug to achieve sufficient distribution in both the phases. The separators were kept still for 5 minutes, and then the phases were separated. The phases were suitably diluted and analyzed (n=6) using the fiber optics with the UV detector set at 232 nm and 340 nm for Bu and BuP, respectively.

solubility at 0 min ([2]; aqueous buffer, Phosphate buffer, pH 6.8)	solubility at 30 min ([2]; aqueous buffer, Phosphate buffer, pH 6.8, 30 min)	solubility at 0 min ([2]; aqueous buffer, Phosphate buffer, pH 7.4)	solubility at 30 min ([2]; aqueous buffer, Phosphate buffer, pH 7.4, 30 min)	solubility at 0 min ([2]; aqueous buffer, Phthalate buffer, pH 4.0)	solubility at 30 min ([2]; aqueous buffer, Phthalate buffer, pH 4.0, 30 min)	solubility at 0 min ([2]; phosphate buffer with 10% w/v rat fecal content, plasma or biological fluid, Phosphate buffer, pH 6.8 + rat fecal content)	solubility at 30 min ([2]; phosphate buffer with 10% w/v rat fecal content, plasma or biological fluid, Phosphate buffer, pH 6.8 + rat fecal content, 30 min)	solubility at 0 min ([2]; simulated gastric fluid, HCl buffer, pH 1.2)	solubility at 30 min ([2]; simulated gastric fluid, HCl buffer, pH 1.2, 30 min ultrasonic bath)	solubility at 0 min ([2]; Double distilled water, pH 5.8)	solubility at 30 min ([2]; Double distilled water, pH 5.8, 30 min)	logP ([3]; n-octanol / HCl buffer, pH 1.2)	logP ([3]; n-octanol / double distilled water, pH 5.8)	logP ([3]; n-octanol / phosphate buffer, pH 6.8)	logP ([3]; n-octanol / phosphate buffer, pH 7.4)	logP ([3]; n-octanol / phthalate buffer, pH 4.0)	Compound	effect on colitis in rats [1]
																	CCCC1OC2CC3C4CCC5=CC(=O)C=CC5(C)C4C(O)CC3(C)C2(C(=O)COC2OC(C(=O)O)C(O)C(O)C2O)O1 [budesonide-beta-D-glucuronide]	accelerate the treatment of colitis in rats
0.187 ± 0.00198 mg/mL (≈ 435 µM)	0.3569 ± 0.00099 mg/mL (≈ 829 µM)	0.231 ± 0.00212 mg/mL (≈ 537 µM)	0.4761 ± 0.00199 mg/mL (≈ 1110 µM)	0.0682 ± 0.00098 mg/mL (≈ 158 µM)	0.148 ± 0.00132 mg/mL (≈ 344 µM)	0.1871 ± 0.00089 mg/mL	0.3569 ± 0.00176 mg/mL	0.0251 ± 0.00143 mg/mL (≈ 58.3 µM)	0.08812 ± 0.00067 mg/mL (≈ 205 µM)	0.121 ± 0.00126 mg/mL (≈ 281 µM)	0.209 ± 0.00213 mg/mL (≈ 486 µM)	3.12 ± 0.12	2.87 ± 1.05	2.51 ± 0.36	2.13 ± 1.09	3.01 ± 0.54	CCCC1O[C@@H]2C[C@H]3[C@@H]4CCC5=CC(=O)C=C[C@]5(C)[C@H]4[C@@H](O)C[C@]3(C)[C@]2(C(=O)CO)O1 (stereo partly drawn) [Bu, budesonide]	
